Data as given in publication PMC7310518 (Nature chemical biology, 2017).
Read-outs that look alike come from different tables or passages of the source.

Tests used:
[1] = target: T1, AaBioW (pimeloyl-CoA synthetase BioW) (Aquifex aeolicus, UniProt O67575); assay: co-crystal structure with CoA; assay type: binding
[2] = target: T1, AaBioW (pimeloyl-CoA synthetase BioW); assay: ITC; assay type: binding
[3] = target: T1, AaBioW (pimeloyl-CoA synthetase BioW); assay: ITC; assay type: binding; remark: listed apart in the source
[4] = target: T1, AaBioW (pimeloyl-CoA synthetase BioW); assay: TLC proofreading assay; assay type: biochemical
[5] = target: T1, AaBioW (pimeloyl-CoA synthetase BioW); assay: TLC adenylation/proofreading assay; assay type: biochemical

T1 sequence (O67575 whole entry): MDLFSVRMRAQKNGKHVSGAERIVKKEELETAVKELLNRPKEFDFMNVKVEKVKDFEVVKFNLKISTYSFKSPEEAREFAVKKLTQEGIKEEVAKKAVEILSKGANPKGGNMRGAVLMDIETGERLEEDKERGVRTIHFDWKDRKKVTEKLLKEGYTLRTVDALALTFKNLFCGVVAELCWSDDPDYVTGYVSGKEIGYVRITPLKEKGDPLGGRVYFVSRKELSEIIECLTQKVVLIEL

In the case of `Nc1ncnc2c1ncn2[C@@H]1O[C@H](COP(=O)(O)O)[C@@H](O)[C@H]1O` [AMP], the “co-crystal structure with CoA (2.25 Å)” value [1] is reported as “AaBioW with CoA–AMP (5TVA)”.

Work on `Nc1ncnc2c1ncn2[C@@H]1O[C@H](COP(=O)(O)OP(=O)(O)OP(=O)(O)O)[C@@H](O)[C@H]1O` [ATP] yielded a Kd [2] of 13 ± 3 µM.

`CC(C)(COP(=O)(O)OP(=O)(O)OC[C@H]1O[C@@H](n2cnc3c(N)ncnc32)[C@H](O)[C@@H]1OP(=O)(O)O)[C@@H](O)C(=O)NCCC(=O)NCCS` [CoA] was tested, and the Kd [3] was 14 ± 2.5 µM.

For `O=C(O)CCCC(=O)O` [compound 3, glutarate], the “TLC proofreading assay (AMP accumulation)” value [4] was “reactions carried out using glutarate in the absence of CoA resulted only in the accumulation of AMP”.

`O=C(O)CCCCC(=O)O` [compound 4, adipate] was tested, and the TLC adenylation/proofreading assay [5] was “adenylated intermediates can be observed for the cognate C7, as well as for the noncognate C6 and C8 substrates”.

`O=C(O)CCCCCCC(=O)O` [compound 5, suberate] was tested, and the TLC adenylation/proofreading assay [5] was “adenylated intermediates can be observed for the cognate C7, as well as for the noncognate C6 and C8 substrates”.
